System: Aβ42
Assay: In vitro cell screening assay in H4 cells expressing human APP751: Aβ42 by sandwich ELISA
Type: cell-based
Conditions: compounds 0.003-10 μM, incubated overnight (16-18 h), sandwich ELISA of supernatant
Procedure, shortened: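 Secreted Aβ42 measured by sandwich ELISA, C-terminal-specific capture and 4G8-HRP detection, TMB read at 450 nm, from supernatants of APP751-expressing H4 cells exposed overnight (16-18 h) to 0.003-10 μM compound in Pro293 medium, 0.33% DMSO. Data scaled between DMSO and DAPT controls; EC50 from variable-slope nonlinear regression.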

Row | Compound | EC50 [nM] | EC50 (Homo sapiens) [nM]
1 | COc1nc(C2=NOCC(c3cn(C)c4ccc(C5CC5)cc34)N2)ccc1-n1cnc(C)c1 (single isomer, unassigned; (+)) [Example 221B, (+)-5-(5-cyclopropyl-1-methyl-1H-indol-3-yl)-3-(6-methoxy-5-(4-methyl-1H-imidazol-1-yl)pyridin-2-yl)-5,6-dihydro-4H-1,2,4-oxadiazine] | 2.9 | –
2 | COc1nc(C2=NOCC(c3cn(C)c4cc(C#N)ccc34)N2)ccc1-n1cnc(C)c1 (single isomer, unassigned; (+)) [Example 249B, (+)-3-(3-(6-methoxy-5-(4-methyl-1H-imidazol-1-yl)pyridin-2-yl)-5,6-dihydro-4H-1,2,4-oxadiazin-5-yl)-1-methyl-1H-indole-6-carbonitrile] | 30.2 | –
3 | COc1nc(C2=NOCC(c3nn(C)c4ccc(Cl)cc34)N2)ccc1-n1cnc(C)c1 (single isomer, unassigned; (-)) [Example 232A, (−)-5-(5-chloro-1-methyl-1H-indazol-3-yl)-3-(6-methoxy-5-(4-methyl-1H-imidazol-1-yl)pyridin-2-yl)-5,6-dihydro-4H-1,2,4-oxadiazine] | 278 | –
4 | COc1nc(C2=NOCC(c3ccc(C4CC4)c(Cl)c3)N2)ccc1-n1cnc(C)c1 (single isomer, unassigned; (+)) [Example 243B, (+)-5-(3-chloro-4-cyclopropylphenyl)-3-(6-methoxy-5-(4-methyl-1H-imidazol-1-yl)pyridin-2-yl)-5,6-dihydro-4H-1,2,4-oxadiazine] | 13.2 | –
5 | COc1nc(C2=NOCC(c3ccc(Cl)c(C(F)(F)F)c3)N2)ccc1-n1cnc(C)c1 (single isomer, unassigned) [Example 253A, 5-(4-chloro-3-(trifluoromethyl)phenyl)-3-(6-methoxy-5-(4-methyl-1H-imidazol-1-yl)pyridin-2-yl)-5,6-dihydro-4H-1,2,4-oxadiazine] | 654 | –
6 | COc1nc(C2=NOCC(C3CCC3)N2)ccc1-n1cnc(C)c1 (single isomer, unassigned; (-)) [Example 163B, (−)-5-cyclobutyl-3-(6-methoxy-5-(4-methyl-1H-imidazol-1-yl)pyridin-2-yl)-5,6-dihydro-4H-1,2,4-oxadiazine] | 368 | –
7 | COc1nc(C2=NOCC(c3oc4ccc(F)cc4c3C)N2)ccc1-n1cnc(C)c1 (single isomer, unassigned; (+)) [Example 101B, (+)-5-(5-fluoro-3-methylbenzofuran-2-yl)-3-(6-methoxy-5-(4-methyl-1H-imidazol-1-yl)pyridin-2-yl)-5,6-dihydro-4H-1,2,4-oxadiazine] | 10.8 | –
8 | COc1nc(C2=NOCC(c3cn(C)c4cc(S(C)(=O)=O)ccc34)N2)ccc1-n1cnc(C)c1 (single isomer, unassigned; (-)) [Example 256A, (−)-3-(6-methoxy-5-(4-methyl-1H-imidazol-1-yl)pyridin-2-yl)-5-(1-methyl-6-(methylsulfonyl)-1H-indol-3-yl)-5,6-dihydro-4H-1,2,4-oxadiazine] | 2590 | –
9 | COc1cc(C2=NOCC(c3nc4cccc(C)c4o3)N2C)ccc1-n1cnc(C)c1 (single isomer, unassigned; (+)) [Example 212A, (+)-2-(3-(3-methoxy-4-(4-methyl-1H-imidazol-1-yl)phenyl)-4-methyl-5,6-dihydro-4H-1,2,4-oxadiazin-5-yl)-7-methylbenzo[d]oxazole] | 789 | –
10 | COc1nc(C2=NOCC(c3oc4ccccc4c3C)N2)ccc1-n1cnc(C)c1 (single isomer, unassigned; (-)) [Example 16A, (−)-3-(6-methoxy-5-(4-methyl-1H-imidazol-1-yl)pyridin-2-yl)-5-(3-methylbenzofuran-2-yl)-5,6-dihydro-4H-1,2,4-oxadiazine] | 508 | –
11 | COc1nc(C2=NOCC(c3cn(C)c4ncc(Cl)cc34)N2)ccc1-n1cnc(C)c1 (single isomer, unassigned; (+)) [Example 264B, (+)-5-(5-chloro-1-methyl-1H-pyrrolo[2,3-b]pyridin-3-yl)-3-(6-methoxy-5-(4-methyl-1H-imidazol-1-yl)pyridin-2-yl)-5,6-dihydro-4H-1,2,4-oxadiazine] | 9.5 | –
12 | COc1nc(C2=NOCC(c3ccc(F)cc3F)N2)ccc1-n1cnc(C)c1 (single isomer, unassigned) [Example 129B, 5-(2,4-difluorophenyl)-3-(6-methoxy-5-(4-methyl-1H-imidazol-1-yl)pyridin-2-yl)-5,6-dihydro-4H-1,2,4-oxadiazine] | 128 | –
13 | COc1nc(C2=NOCC(c3cc4c(Cl)cccc4o3)N2)ccc1-n1cnc(C)c1 (single isomer, unassigned; (+)) [Example 96B, (+)-5-(4-chlorobenzofuran-2-yl)-3-(6-methoxy-5-(4-methyl-1H-imidazol-1-yl)pyridin-2-yl)-5,6-dihydro-4H-1,2,4-oxadiazine] | 12.7 | –
14 | COc1nc(C2=NOCC(c3ccc(Cl)c(C(F)(F)F)c3)N2)ccc1-n1cnc(C)c1 (single isomer, unassigned) [Example 253B, 5-(4-chloro-3-(trifluoromethyl)phenyl)-3-(6-methoxy-5-(4-methyl-1H-imidazol-1-yl)pyridin-2-yl)-5,6-dihydro-4H-1,2,4-oxadiazine] | 8.4 | –

Next, values leading:

Row | EC50 [nM] | EC50 (Homo sapiens) [nM] | Compound
15 | 9.5 | – | COc1nc(C2=NOCC(c3cc4cc(C5CC5)ccc4o3)N2)ccc1-n1cnc(C)c1 (single isomer, unassigned; (+)) [Example 234B, (+)-5-(5-cyclopropylbenzofuran-2-yl)-3-(6-methoxy-5-(4-methyl-1H-imidazol-1-yl)pyridin-2-yl)-5,6-dihydro-4H-1,2,4-oxadiazine]
16 | – | 11.5 | COc1nc(C2=NOC[C@H](c3cc4c(C)cccc4o3)N2)ccc1-n1cnc(C)c1 [Example 19, (R)-3-(6-Methoxy-5-(4-methyl-1H-imidazol-1-yl)pyridin-2-yl)-5-(4-methylbenzofuran-2-yl)-5,6-dihydro-4H-1,2,4-oxadiazine]
17 | 2630 | – | COc1nc(C2=NOCC(c3ccc(F)c(Cl)c3)N2)ccc1-n1cnc(C)c1 (single isomer, unassigned; (-)) [Example 108A, (−)-5-(3-chloro-4-fluorophenyl)-3-(6-methoxy-5-(4-methyl-1H-imidazol-1-yl)pyridin-2-yl)-5,6-dihydro-4H-1,2,4-oxadiazine]
18 | 1550 | – | COc1nc(C2=NOCC(c3ccc(Cl)c(C)c3)N2)ccc1-n1cnc(C)c1 (single isomer, unassigned; (-)) [Example 86A, (−)-5-(4-chloro-3-methylphenyl)-3-(6-methoxy-5-(4-methyl-1H-imidazol-1-yl)pyridin-2-yl)-5,6-dihydro-4H-1,2,4-oxadiazine]
19 | > 3000 | – | COc1nc(C2=NOCC(c3ccc4nc(C)sc4c3)N2)ccc1-n1cnc(C)c1 (single isomer, unassigned; (-)) [Example 238A, (−)-3-(6-methoxy-5-(4-methyl-1H-imidazol-1-yl)pyridin-2-yl)-5-(2-methylbenzo[d]thiazol-6-yl)-5,6-dihydro-4H-1,2,4-oxadiazine]
20 | > 3000 | – | COc1nc(C2=NOCC(c3ccc(C(F)(F)F)c(F)c3)N2)ccc1-n1cnc(C)c1 (single isomer, unassigned) [Example 121A, 5-(3-fluoro-4-(trifluoromethyl)phenyl)-3-(6-methoxy-5-(4-methyl-1H-imidazol-1-yl)pyridin-2-yl)-5,6-dihydro-4H-1,2,4-oxadiazine]
21 | 2460 | – | COc1nc(C2=NOCC(c3cc4cc(C(F)(F)F)ccc4o3)N2)ccc1-n1cnc(C)c1 (single isomer, unassigned; (-)) [Example 259A, (−)-3-(6-methoxy-5-(4-methyl-1H-imidazol-1-yl)pyridin-2-yl)-5-(5-(trifluoromethyl)benzofuran-2-yl)-5,6-dihydro-4H-1,2,4-oxadiazine]
22 | > 3000 | – | COc1nc(C2=NOCC(c3ccc4ncccc4c3)N2)ccc1-n1cnc(C)c1 (single isomer, unassigned; (-)) [Example 224A, (−)-3-(6-methoxy-5-(4-methyl-1H-imidazol-1-yl)pyridin-2-yl)-5-(quinolin-6-yl)-5,6-dihydro-4H-1,2,4-oxadiazine]
23 | 1090 | – | COc1nc(C2=NOCC(c3csc4ccccc34)N2)ccc1-n1cnc(C)c1 (single isomer, unassigned; (-)) [Example 68A, (−)-5-(benzo [b]thiophen-3-yl)-3-(6-methoxy-5-(4-methyl-1H-imidazol-1-yl)pyridin-2-yl)-5,6-dihydro-4H-1,2,4-oxadiazine]
24 | 260 | – | COc1nc(C2=NOCC(c3ccc4ncsc4c3)N2)ccc1-n1cnc(C)c1 (single isomer, unassigned; (+)) [Example 183B, (+)-5-(benzo [d]thiazol-6-yl)-3-(6-methoxy-5-(4-methyl-1H-imidazol-1-yl)pyridin-2-yl)-5,6-dihydro-4H-1,2,4-oxadiazine]
25 | 38.8 | – | COc1nc(C2=NOCC(c3ccc(C4CC4)cc3)N2)ccc1-n1cnc(C)c1 (single isomer, unassigned; (+)) [Example 116B, (+)-5-(4-cyclopropylphenyl)-3-(6-methoxy-5-(4-methyl-1H-imidazol-1-yl)pyridin-2-yl)-5,6-dihydro-4H-1,2,4-oxadiazine]
26 | 197 | – | COc1cccc(C2CON=C(c3ccc(-n4cnc(C)c4)c(OC)n3)N2)c1 (single isomer, unassigned; (+)) [Example 145B, (+)-3-(6-methoxy-5-(4-methyl-1H-imidazol-1-yl)pyridin-2-yl)-5-(3-methoxyphenyl)-5,6-dihydro-4H-1,2,4-oxadiazine]
27 | 24.4 | – | COc1nc(C2=NOCC(c3cn(C)c4cccc(Cl)c34)N2)ccc1-n1cnc(C)c1 (single isomer, unassigned; (-)) [Example 229B, (−)-5-(4-chloro-1-methyl-1H-indol-3-yl)-3-(6-methoxy-5-(4-methyl-1H-imidazol-1-yl)pyridin-2-yl)-5,6-dihydro-4H-1,2,4-oxadiazine]

From US9802927B2, “Oxadiazine compounds and methods of use thereof” (Denali Therapeutics, Inc., priority 2015, dated 2017)
